Data on 33 compounds can be found in patent US20260098030A1, “NEGATIVE ALLOSTERIC MODULATORS OF METABOTROPIC GLUTAMATE RECEPTOR 2” (Vanderbilt University, priority 2022, published 2026).

As a reminder, the IC50 is the concentration at which inhibition is half-maximal.

A value given as a limit tells only on which side of the number the result lay.

For this assay, the target named is T1, rat mGlu2 (Rattus norvegicus, UniProt P31421).
T1 construct: expressed in transfected cells; host or cells: HEK-293 cells stably co-expressing GIRK channels
T1 sequence (P31421 19-872): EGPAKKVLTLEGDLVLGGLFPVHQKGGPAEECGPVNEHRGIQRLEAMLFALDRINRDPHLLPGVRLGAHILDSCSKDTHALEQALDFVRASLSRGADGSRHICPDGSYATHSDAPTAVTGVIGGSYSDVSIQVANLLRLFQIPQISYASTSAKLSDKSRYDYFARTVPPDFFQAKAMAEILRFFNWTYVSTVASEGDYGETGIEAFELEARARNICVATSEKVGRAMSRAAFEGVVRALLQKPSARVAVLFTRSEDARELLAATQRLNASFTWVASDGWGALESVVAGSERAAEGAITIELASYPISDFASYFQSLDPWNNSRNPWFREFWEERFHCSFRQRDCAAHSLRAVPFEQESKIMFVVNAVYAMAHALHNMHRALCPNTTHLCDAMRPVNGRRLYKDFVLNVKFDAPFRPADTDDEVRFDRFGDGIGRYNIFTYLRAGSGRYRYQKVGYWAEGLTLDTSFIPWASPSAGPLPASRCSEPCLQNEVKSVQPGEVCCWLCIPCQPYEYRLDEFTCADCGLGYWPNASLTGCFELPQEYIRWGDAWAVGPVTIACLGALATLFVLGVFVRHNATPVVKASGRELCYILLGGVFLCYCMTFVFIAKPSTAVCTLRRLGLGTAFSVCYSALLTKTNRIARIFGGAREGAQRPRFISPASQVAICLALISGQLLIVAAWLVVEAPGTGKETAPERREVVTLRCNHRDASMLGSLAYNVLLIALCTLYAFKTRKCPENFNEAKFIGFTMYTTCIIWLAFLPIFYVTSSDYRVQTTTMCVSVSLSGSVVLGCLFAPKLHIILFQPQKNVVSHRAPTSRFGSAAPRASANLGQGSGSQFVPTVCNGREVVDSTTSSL
Nature of the assay: mGlu GIRK cell-based thallium flux assay, rat mGlu2. The following applies: HEK-293 cells co-expressing rat mGlu2 and GIRK, EC80 glutamate. The procedure: Human embryonic kidney (HEK-293) cell lines stably co-expressing human or rat mGlu2 and G protein-coupled inwardly rectifying potassium (GIRK) channels, or human mGlu3 and GIRK, were used for in vitro evaluation of compound activity in thallium flux assay using a fluorescent thallium indicator dye.
The day before the assay, GIRK cells co-expressing human mGlu3, human or rat mGlu2, as described above, were plated in black-walled, clear-bottomed, amine-coated 384-well plates at a density of 15,000 cells/20 μL/well in the assay medium (glutamine-depleted basal DMEM supplemented with 10% dialyzed FBS, 20 mM HEPES, 1 mM sodium pyruvate). Cells were incubated at 37° C. in the presence of 5% CO2. The next day, assay buffer (Hanks balanced salt solution, 20 mM HEPES, 4.16 mM sodium bicarbonate, pH 7.2) was prepared to dilute compounds and Thallos AM fluorescent dye solution. The 2× Thallos dye solution (final concentration 0.34 μM to the cells) was prepared by mixing the dye stock (2.97 mM in DMSO) to 1:1 with 10% pluronic acid before adding to the assay buffer. Cells were washed with assay buffer using a microplate washer to remove the medium, resulting in 20 μL of buffer remaining in each well. Immediately, 20 μL of 2× Thallos dye solution was added to cells, and incubated for one hour at 25° C. During the cell dye loading incubation period, a 10-point concentration serial dilution of compound was created from a 10 mM DMSO compound stock by performing a 1:3 serial dilution in DMSO using the Bravo liquid handler. The 2× compound plate was generated by transferring 0.24 μL of the diluted compound in each well to a daughter plate using an Echo acoustic liquid handler. This is further diluted in 40 μL assay buffer, resulting in a range from 30 μM to 1.5 nM final concentration in the assay. The agonist plate (5×) was prepared to include EC80 glutamate concentration (a concentration to elicit 80% of a maximally effective glutamate concentration) in thallium buffer (125 mM […], 1 mM magnesium sulfate, 1.8 mM calcium sulfate, 5 mM glucose, 10 mM HEPES, pH 7.2, 12.5 mM thallium sulfate).
After dye-loading, cell plates were washed with assay buffer to remove excess extracellular dye using a microplate washer, resulting in 20 μL of buffer remaining in each well. After a ten-minute equilibration period, cell, compound and agonist plates were loaded into a Hamamatsu μCell kinetic imaging plate reader equipped with liquid handler to monitor fluorescence changes at 480 nm excitation and 540 nm emission settings. Briefly, after collection of baseline fluorescence, 20 μL of compound was added and incubated for two minutes and twenty seconds. This is immediately followed by adding 10 μL of glutamate-thallium buffer to the wells containing compound. The fluorescent signal was monitored an additional 2.5 minutes after the glutamate addition. Multiple reference wells containing no compound received either no glutamate (for a baseline reference), EC80 glutamate, or ECmax glutamate (for normalization to maximum response). Fluorescence was measured throughout the experiment at a frequency of 1 measurement per every 2 seconds before the glutamate addition and a frequency of 1 measurement per every 1 second after the glutamate addition. Each compound concentration series occurred one time in each plate, and replicates from two or three plates were used in each experimental run. Thallium solutions were handled and disposed of according to guidelines from the Vanderbilt University Chemical Safety department.
Data were normalized using a static ratio function (F/F0) by dividing every fluorescent measurement by the initial fluorescent value for the corresponding well. The increase in signal resulting from the glutamate/thallium addition of the second add was measured by determining the slope from 3 seconds to 13 seconds after the addition. […]
Turning to `CN(C)c1ccc(-c2cc3c(cc2-c2ccc(F)cc2)C(=O)NC3)cn1` [Compound 34, 5-(6-(dimethylamino)pyridin-3-yl)-6-(4-fluorophenyl)isoindolin-1-one], the IC50 is over 10 µM.

The compound `O=C1NCc2cc(-c3ccc4cnccc4c3)c(-c3ccc(F)cc3)cc21` [Compound 14, 6-(4-fluorophenyl)-5-(isoquinolin-6-yl)isoindolin-1-one] had an IC50 of 2.25 µM.

`CC1(C)C=C(c2cc3c(cc2-c2ccc(F)cc2)C(=O)NC3)CC(C)(C)N1` [Compound 59, 6-(4-fluorophenyl)-5-(2,2,6,6-tetramethyl-1,2,3,6-tetrahydropyridin-4-yl)isoindolin-1-one] showed an IC50 of over 10 µM.

Compound `Cc1ncccc1-c1cc2c(cc1-c1ccc(F)cc1)C(=O)NC2` [Compound 41, 6-(4-fluorophenyl)-5-(2-methylpyridin-3-yl)isoindolin-1-one] displayed an IC50 of over 10 µM.

In turn, `COc1ncccc1-c1cc2c(cc1-c1ccc(F)cc1F)C(=O)NC2` [Compound 100, 6-(2,4-difluorophenyl)-5-(2-methoxypyridin-3-yl)isoindolin-1-one] returned a half-inhibitory concentration (IC50) of 1.12 µM.

In turn, `N#Cc1cc(-c2cc3c(cc2-c2ccc(F)cc2F)C(=O)NC3)ccn1` [Compound 104, 4-(6-(2,4-difluorophenyl)-1-oxoisoindolin-5-yl)picolinonitrile] had an IC50 of over 10 µM.

In turn, `CC1C=C(c2cc3c(cc2-c2ccc(F)cc2)C(=O)NC3)CC(C)N1` (stereo not drawn) [Compound 62, 5-(2,6-dimethyl-1,2,3,6-tetrahydropyridin-4-yl)-6-(4-fluorophenyl)isoindolin-1-one] displayed an IC50 of over 10 µM.

As for `O=C1NCc2cc(-c3ccc(F)nc3F)c(-c3ccc(F)cc3)cc21` [Compound 32, 5-(2,6-difluoropyridin-3-yl)-6-(4-fluorophenyl)isoindolin-1-one], the IC50 was over 10 µM.

`Cc1ccc(-c2cc3c(cc2-c2ccc(F)cc2)C(=O)NC3)cn1` [Compound 6, 6-(4-fluorophenyl)-5-(6-methylpyridin-3-yl)isoindolin-1-one] had an IC50 of 2.46 µM.

Regarding `CC(C)c1ncccc1-c1cc2c(cc1-c1ccc(F)cc1)C(=O)NC2` [Compound 42, 6-(4-fluorophenyl)-5-(2-isopropylpyridin-3-yl)isoindolin-1-one], half-maximal inhibition (IC50) was put at 7.55 µM. This IC50 is about 3.1-fold higher than that of the compound before.

For `O=C1NCc2cc(-c3ccccn3)c(-c3ccc(F)cc3)cc21` [Compound 45, 6-(4-fluorophenyl)-5-(pyridin-2-yl)isoindolin-1-one], the IC50 was over 10 µM.

`CN1CCN(c2ccc(-c3cc4c(cc3-c3ccc(F)cc3F)C(=O)NC4)cc2)CC1` [Compound 113, 6-(2,4-difluorophenyl)-5-(4-(4-methylpiperazin-1-yl)phenyl)isoindolin-1-one] returned an IC50 of over 10 µM.

With `O=C1NCc2cc(C3=CCN(Cc4ccccc4)CC3)c(-c3ccc(F)cc3)cc21` [Compound 56, 5-(1-benzyl-1,2,3,6-tetrahydropyridin-4-yl)-6-(4-fluorophenyl)isoindolin-1-one], the IC50 was over 10 µM.

Take `O=C1NCc2cc(-c3cccnc3)c(-c3ccc(F)cc3F)cc21` [Compound 88, 6-(2,4-difluorophenyl)-5-(pyridin-3-yl)isoindolin-1-one]: the IC50 worked out at 1.65 µM.

The compound `O=C1NCc2cc(-c3ccc(C(F)(F)F)nc3)c(-c3ccc(F)cc3)cc21` [Compound 27, 6-(4-fluorophenyl)-5-(6-(trifluoromethyl)pyridin-3-yl)isoindolin-1-one] had an IC50 of over 10 µM.

In the case of `O=C1NCc2cc(C3CCNCC3)c(-c3ccc(F)cc3)cc21` [Compound 67, 6-(4-fluorophenyl)-5-(piperidin-4-yl)isoindolin-1-one], the IC50 was over 10 µM.

The compound `Cc1ccc(-c2cc3c(cc2-c2ccc(F)cc2)C(=O)NC3)c(C)n1` [Compound 29, 5-(2,6-dimethylpyridin-3-yl)-6-(4-fluorophenyl)isoindolin-1-one] showed an IC50 of 3.6 µM.

Regarding `CC1CC(c2cc3c(cc2-c2ccc(F)cc2)C(=O)NC3)CC(C)N1` (stereo not drawn) [Compound 68, 5-(2,6-dimethylpiperidin-4-yl)-6-(4-fluorophenyl)isoindolin-1-one], the IC50 was over 10 µM.

Compound `N#Cc1cccc(-n2cc(-c3cc4c(cc3-c3ccc(F)cc3F)C(=O)NC4)cn2)c1` [Compound 99, 3-(4-(6-(2,4-difluorophenyl)-1-oxoisoindolin-5-yl)-1H-pyrazol-1-yl)benzonitrile] yielded an IC50 of over 10 µM.

`O=C1NCc2cc(-c3ccc4ocnc4c3)c(-c3ccc(F)cc3)cc21` [Compound 12, 5-(benzo[d]oxazol-5-yl)-6-(4-fluorophenyl)isoindolin-1-one] registered an IC50 of 0.094 µM.

`Cn1cc2cccc(-c3cc4c(cc3-c3ccc(F)cc3)C(=O)NC4)c2n1` [Compound 17, 6-(4-fluorophenyl)-5-(2-methyl-2H-indazol-7-yl)isoindolin-1-one] displayed an IC50 of 1.24 µM.

With `Cc1cc(F)ncc1-c1cc2c(cc1-c1ccc(F)cc1F)C(=O)NC2` [Compound 81, 6-(2,4-difluorophenyl)-5-(6-fluoro-4-methylpyridin-3-yl)isoindolin-1-one], the IC50 was 1.14 µM.

The compound `O=C1NCc2cc(-c3cnc(C(F)(F)F)nc3)c(-c3ccc(F)cc3F)cc21` [Compound 86, 6-(2,4-difluorophenyl)-5-(2-(trifluoromethyl)pyrimidin-5-yl)isoindolin-1-one] came in with an IC50 of over 10 µM.

Compound `CC(=O)Nc1ccc(-c2cc3c(cc2-c2ccc(F)cc2)C(=O)NC3)cn1` [Compound 36, N-(5-(6-(4-fluorophenyl)-1-oxoisoindolin-5-yl)pyridin-2-yl)acetamide] gave an IC50 of over 10 µM.

`Cc1ccncc1-c1cc2c(cc1-c1ccc(F)cc1)C(=O)NC2` [Compound 48, 6-(4-fluorophenyl)-5-(4-methylpyridin-3-yl)isoindolin-1-one]: the IC50 was over 10 µM.

`O=C1NCc2cc(-c3cccnc3F)c(-c3ccc(F)cc3)cc21` [Compound 40, 6-(4-fluorophenyl)-5-(2-fluoropyridin-3-yl)isoindolin-1-one] displayed an IC50 of over 10 µM.

The compound `Cn1cc2c(-c3cc4c(cc3-c3ccc(F)cc3)C(=O)NC4)cccc2n1` [Compound 28, 6-(4-fluorophenyl)-5-(2-methyl-2H-indazol-4-yl)isoindolin-1-one] returned an IC50 of 1.93 µM.

`O=C1NCc2cc(-c3ccc4ncsc4c3)c(-c3ccc(F)cc3)cc21` [Compound 11, 5-(benzo[d]thiazol-6-yl)-6-(4-fluorophenyl)isoindolin-1-one] showed an IC50 of over 10 µM.

In turn, `Cc1c(-c2cc3c(cc2-c2ccc(F)cc2)C(=O)NC3)cc(C#N)n1C` [Compound 53, 4-(6-(4-fluorophenyl)-1-oxoisoindolin-5-yl)-1,5-dimethyl-1H-pyrrole-2-carbonitrile] yielded an IC50 of over 10 µM.

In the case of `Cc1nnc(-c2ccc(-c3cc4c(cc3-c3ccc(F)cc3F)C(=O)NC4)cc2F)o1` [Compound 112, 6-(2,4-difluorophenyl)-5-(3-fluoro-4-(5-methyl-1,3,4-oxadiazol-2-yl)phenyl)isoindolin-1-one], the IC50 was over 10 µM.

The compound `O=C1NCc2cc(-c3ccc4nccn4c3)c(-c3ccc(F)cc3)cc21` [Compound 20, 6-(4-fluorophenyl)-5-(imidazo[1,2-a]pyridin-6-yl)isoindolin-1-one] registered an IC50 of 8.31 µM. This counts as single-digit micromolar.

For `Cn1cc2cc(-c3cc4c(cc3-c3ccc(F)cc3)C(=O)NC4)cnc2n1` [Compound 16, 6-(4-fluorophenyl)-5-(2-methyl-2H-pyrazolo[3,4-b]pyridin-5-yl)isoindolin-1-one], the IC50 is over 10 µM.

`CN1CC=C(c2cc3c(cc2-c2ccc(F)cc2)C(=O)NC3)CC1` [Compound 58, 6-(4-fluorophenyl)-5-(1-methyl-1,2,3,6-tetrahydropyridin-4-yl)isoindolin-1-one] yielded an IC50 of over 10 µM.
